Target: T1, Endothelin converting enzyme (ECE) (Sus scrofa, UniProt A0A8W4FBH0)
T1 construct: partially purified from porcine primary aortic endothelial cells; endogenous in cells; host or cells: porcine primary aortic endothelial cells (partially purified by DE52 anion exchange)
T1 sequence (A0A8W4FBH0 1-751): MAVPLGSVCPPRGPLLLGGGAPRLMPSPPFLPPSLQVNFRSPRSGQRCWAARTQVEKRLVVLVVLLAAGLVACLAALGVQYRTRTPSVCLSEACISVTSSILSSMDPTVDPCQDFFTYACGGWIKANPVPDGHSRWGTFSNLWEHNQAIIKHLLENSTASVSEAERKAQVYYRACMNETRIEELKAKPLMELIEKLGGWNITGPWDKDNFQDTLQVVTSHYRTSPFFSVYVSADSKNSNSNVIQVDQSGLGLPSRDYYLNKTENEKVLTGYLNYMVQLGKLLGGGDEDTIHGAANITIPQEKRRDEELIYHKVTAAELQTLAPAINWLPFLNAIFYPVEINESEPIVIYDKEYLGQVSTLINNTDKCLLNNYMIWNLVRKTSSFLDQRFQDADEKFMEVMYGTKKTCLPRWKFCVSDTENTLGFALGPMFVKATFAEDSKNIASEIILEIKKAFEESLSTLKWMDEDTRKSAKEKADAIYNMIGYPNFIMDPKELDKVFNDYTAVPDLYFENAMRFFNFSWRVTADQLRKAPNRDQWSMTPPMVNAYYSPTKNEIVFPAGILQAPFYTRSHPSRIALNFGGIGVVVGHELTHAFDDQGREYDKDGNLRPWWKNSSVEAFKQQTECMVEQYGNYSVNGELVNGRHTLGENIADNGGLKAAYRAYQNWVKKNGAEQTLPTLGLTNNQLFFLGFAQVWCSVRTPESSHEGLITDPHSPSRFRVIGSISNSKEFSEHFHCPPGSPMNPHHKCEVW
Assay: in vitro assay for endothelin converting enzyme inhibition (radioimmunoassay of ET-1 formed from big ET-1)
Type: biochemical, porcine
Excerpt: The ECE inhibition can be determined as described in Biochem. Mol. Biol. Int. […] In vitro testing is most appropriate for the free phosphonic acids of the invention.

IC50 (ECE partially purified from porcine primary aortic endothelial cells, pH 7.4 buffer): ~370 nM
relative activity as ECE inhibitor (diastereomer A versus diastereomer B) (comparison of the two diastereomers of Example 1): more active
Compound: O=P(O)(O)C(CCc1cccc2ccccc12)N[C@@H](Cc1ccc(-c2ccccc2)cc1)c1nnn[nH]1 (single isomer, unassigned) [1 (a)]

Reference: US5583123A, “Certain tetrazole derivatives” (priority 1994, dated 1996)
